Measurements reported in ChEMBL document CHEMBL5108056, “Discovery of Isoform-Selective Akt3 Degraders Overcoming Osimertinib-Induced Resistance in Non-Small Cell Lung Cancer Cells” (J Med Chem, 2022).
Each block holds one molecule with its values, some of them ahead of it. The source made the active and inactive calls. The rule behind the calls is not given here.

Experiments:
[1] = biological target: T1, RAC-gamma serine/threonine-protein kinase (Homo sapiens, UniProt Q9Y243); experiment: Induction of AKT3 degradation in human NCI-H1975 cells assessed as reduction in AKT3 protein level incubated for 24 hrs under serum free medium by Western blot analysis; type: cell-based
T1 sequence (Q9Y243 whole entry): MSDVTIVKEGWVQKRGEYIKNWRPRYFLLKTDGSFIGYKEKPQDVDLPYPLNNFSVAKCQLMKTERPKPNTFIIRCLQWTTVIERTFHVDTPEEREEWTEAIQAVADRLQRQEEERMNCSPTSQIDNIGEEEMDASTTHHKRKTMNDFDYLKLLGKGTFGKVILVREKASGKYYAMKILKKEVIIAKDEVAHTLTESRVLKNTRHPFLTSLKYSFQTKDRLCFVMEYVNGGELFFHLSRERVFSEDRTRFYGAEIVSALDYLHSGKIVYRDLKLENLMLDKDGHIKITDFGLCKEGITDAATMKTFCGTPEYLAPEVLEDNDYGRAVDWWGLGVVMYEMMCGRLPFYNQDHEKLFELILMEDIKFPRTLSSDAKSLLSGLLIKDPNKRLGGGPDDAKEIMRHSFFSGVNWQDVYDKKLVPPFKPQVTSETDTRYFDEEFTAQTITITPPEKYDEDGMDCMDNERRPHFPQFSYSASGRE

[2] = biological target: T2, RAC-beta serine/threonine-protein kinase (Homo sapiens, UniProt P31751); experiment: Induction of AKT2 degradation in human NCI-H1975 cells assessed as reduction in AKT2 protein level incubated for 24 hrs under serum free medium by Western blot analysis; type: cell-based
T2 sequence (P31751 whole entry): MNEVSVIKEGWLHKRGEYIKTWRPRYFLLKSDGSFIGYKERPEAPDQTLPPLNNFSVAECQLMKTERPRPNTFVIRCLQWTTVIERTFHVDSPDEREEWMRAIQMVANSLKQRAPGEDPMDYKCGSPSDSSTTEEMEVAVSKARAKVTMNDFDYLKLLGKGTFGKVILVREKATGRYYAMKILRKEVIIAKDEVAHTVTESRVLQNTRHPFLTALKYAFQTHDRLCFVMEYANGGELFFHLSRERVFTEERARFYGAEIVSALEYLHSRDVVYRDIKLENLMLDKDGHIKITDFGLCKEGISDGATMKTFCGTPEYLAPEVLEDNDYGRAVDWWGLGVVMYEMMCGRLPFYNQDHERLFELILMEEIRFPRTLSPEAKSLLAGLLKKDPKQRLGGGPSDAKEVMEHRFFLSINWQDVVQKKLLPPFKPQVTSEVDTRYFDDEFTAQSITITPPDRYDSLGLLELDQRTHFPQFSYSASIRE

[3] = biological target: T3, RAC-alpha serine/threonine-protein kinase (Homo sapiens, UniProt P31749); experiment: Induction of AKT1 degradation in human NCI-H1975 cells assessed as reduction in AKT1 protein level incubated for 24 hrs under serum free medium by Western blot analysis; type: cell-based
T3 sequence (P31749 whole entry): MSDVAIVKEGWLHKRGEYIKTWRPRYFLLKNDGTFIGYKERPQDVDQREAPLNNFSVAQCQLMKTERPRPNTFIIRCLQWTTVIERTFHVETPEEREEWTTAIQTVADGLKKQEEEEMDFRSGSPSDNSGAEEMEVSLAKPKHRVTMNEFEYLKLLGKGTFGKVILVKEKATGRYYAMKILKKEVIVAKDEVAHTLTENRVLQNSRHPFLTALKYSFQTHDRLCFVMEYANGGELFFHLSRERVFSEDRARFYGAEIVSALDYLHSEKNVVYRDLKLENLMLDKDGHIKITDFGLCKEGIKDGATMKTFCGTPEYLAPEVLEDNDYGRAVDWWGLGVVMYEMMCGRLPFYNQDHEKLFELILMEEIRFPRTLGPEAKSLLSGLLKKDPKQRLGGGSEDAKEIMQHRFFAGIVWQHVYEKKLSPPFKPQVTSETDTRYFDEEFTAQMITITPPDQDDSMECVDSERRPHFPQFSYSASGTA

[4] = biological target: T1, RAC-gamma serine/threonine-protein kinase; experiment: Induction of AKT3 degradation in human NCI-H1975 cells assessed as reduction in AKT3 protein level at 1000 nM incubated for 24 hrs under serum free medium by Western blot analysis relative to control; type: cell-based
[5] = biological target: Epidermal growth factor receptor (Homo sapiens, UniProt P00533, T790M); experiment: Inhibition of EGFR T790M mutant in human NCI-H1975 cells incubated for 24 hrs under serum free medium by Western blot analysis; type: cell-based
Epidermal growth factor receptor (Homo sapiens, UniProt P00533, T790M), sequence (P00533 25-1210 T790M limits assumed): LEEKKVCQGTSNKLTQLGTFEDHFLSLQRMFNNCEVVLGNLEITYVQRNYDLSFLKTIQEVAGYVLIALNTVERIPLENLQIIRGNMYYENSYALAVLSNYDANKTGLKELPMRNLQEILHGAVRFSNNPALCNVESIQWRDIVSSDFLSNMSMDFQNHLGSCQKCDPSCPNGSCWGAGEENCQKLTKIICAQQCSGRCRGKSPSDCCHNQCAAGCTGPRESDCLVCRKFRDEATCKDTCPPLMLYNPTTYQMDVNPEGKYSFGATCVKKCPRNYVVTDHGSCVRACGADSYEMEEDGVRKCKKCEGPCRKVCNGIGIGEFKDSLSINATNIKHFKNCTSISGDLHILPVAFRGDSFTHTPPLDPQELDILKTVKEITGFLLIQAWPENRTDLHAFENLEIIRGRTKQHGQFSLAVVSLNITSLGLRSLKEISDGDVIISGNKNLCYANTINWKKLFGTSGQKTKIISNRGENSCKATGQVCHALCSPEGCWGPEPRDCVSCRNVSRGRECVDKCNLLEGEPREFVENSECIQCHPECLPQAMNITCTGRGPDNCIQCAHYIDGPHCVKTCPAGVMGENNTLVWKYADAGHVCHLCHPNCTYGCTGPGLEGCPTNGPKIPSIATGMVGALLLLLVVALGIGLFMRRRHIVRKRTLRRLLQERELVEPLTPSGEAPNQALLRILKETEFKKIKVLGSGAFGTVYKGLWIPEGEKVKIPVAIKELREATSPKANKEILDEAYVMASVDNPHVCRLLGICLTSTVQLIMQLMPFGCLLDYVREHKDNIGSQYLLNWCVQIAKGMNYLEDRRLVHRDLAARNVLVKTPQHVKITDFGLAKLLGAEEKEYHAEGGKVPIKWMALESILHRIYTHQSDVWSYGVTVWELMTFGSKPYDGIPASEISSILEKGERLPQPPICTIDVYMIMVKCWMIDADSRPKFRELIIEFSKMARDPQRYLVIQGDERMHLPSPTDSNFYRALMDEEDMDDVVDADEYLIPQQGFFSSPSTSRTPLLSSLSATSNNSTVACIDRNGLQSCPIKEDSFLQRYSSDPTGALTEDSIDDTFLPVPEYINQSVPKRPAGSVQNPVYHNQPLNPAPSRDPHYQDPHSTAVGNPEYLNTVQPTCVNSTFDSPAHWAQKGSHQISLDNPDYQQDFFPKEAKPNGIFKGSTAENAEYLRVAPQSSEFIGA

[6] = biological target: T2, RAC-beta serine/threonine-protein kinase; experiment: Induction of AKT2 degradation in human NCI-H1975 cells assessed as reduction in AKT2 protein level at 1000 nM incubated for 24 hrs under serum free medium by Western blot analysis relative to control; type: cell-based
[7] = biological target: T3, RAC-alpha serine/threonine-protein kinase; experiment: Induction of AKT1 degradation in human NCI-H1975 cells assessed as reduction in AKT1 protein level at 1000 nM incubated for 24 hrs under serum free medium by Western blot analysis relative to control; type: cell-based
NCI-H1975 [8] = experiment: Antiproliferative activity against human osimertinib resistant NCI-H1975 cells assessed as reduction in cell viability measured after 24 hrs by CCK-8 assay; type: functional, cell-based; details: NCI-H1975, 24 h
NCI-H1975 [9] = experiment: In vivo antitumor activity against human osimertinib resistant NCI-H1975 cells xenografted in NOD-SCID mouse assessed as tumor growth inhibition at 10 mg/kg, ip qd administered every 3 days for 5 weeks relative to control; type: functional, organism-based
[10] = biological target: T1, RAC-gamma serine/threonine-protein kinase; experiment: Induction of AKT3 degradation in human A549 cells assessed as reduction in AKT3 protein level incubated for 24 hrs by Western blot analysis; type: cell-based; details: dose 1.6-1000 nM, DDE = dose-dependent effect
NCI-H1975 [11] = experiment: In vivo antitumor activity against human osimertinib resistant NCI-H1975 cells xenografted in NOD-SCID mouse assessed as tumor growth inhibition at 20 mg/kg, ip qd administered every 3 days for 5 weeks relative to control; type: functional, organism-based
[12] = biological target: T1, RAC-gamma serine/threonine-protein kinase; experiment: Induction of AKT3 degradation in human NCI-H1299 cells assessed as reduction in AKT3 protein level incubated for 24 hrs by Western blot analysis; type: cell-based; details: dose 1.6-1000 nM, DDE = dose-dependent effect
[13] = biological target: T1, RAC-gamma serine/threonine-protein kinase; experiment: Induction of AKT3 degradation in human NCI-H460 cells assessed as reduction in AKT3 protein level incubated for 24 hrs by Western blot analysis; type: cell-based; details: dose 1.6-1000 nM, DDE = dose-dependent effect
[14] = biological target: T1, RAC-gamma serine/threonine-protein kinase; experiment: Induction of endogenous AKT3 degradation in human osimertinib resistant NCI-H1975 cells; type: cell-based
[15] = biological target: T1, RAC-gamma serine/threonine-protein kinase; experiment: Binding affinity to full length N-terminal His6-sumo tagged AKT3 (unknown origin) expressed Escherichia coli BL21 (DE3) cells incubated for 2 hrs by pull-down/ LC-MS analysis
NCI-H1975 [16] = experiment: In vivo induction of AKT3 degradation in human osimertinib resistant cells xenografted in NOD-SCID mouse assessed as reduction in AKT3 level in tumor tissue at 10 to 40 mg/kg, ip qd administered every 3 days for 5 weeks by Western blot analysis; type: functional, organism-based; details: dose 10-40 mg/kg
[17] = Toxicity in NOD-SCID mouse xenografted with human PC-9 cells assessed as change in body weight at 20 mg/kg, ip qd administered once every 2 days for 28 days; type: organism-based; details: in vivo, 672 h, time 28 day
[18] = biological target: T1, RAC-gamma serine/threonine-protein kinase; experiment: Induction of AKT3 degradation in human NCI-H1975 cells assessed as reduction in AKT3 protein level incubated for 24 hrs by Western blot analysis; type: cell-based; details: dose 1.6-1000 nM, DDE = dose-dependent effect
[19] = biological target: T1, RAC-gamma serine/threonine-protein kinase; experiment: Induction of AKT3 degradation in human HCC827 cells assessed as reduction in AKT3 protein level incubated for 24 hrs by Western blot analysis; type: cell-based; details: dose 1.6-1000 nM, DDE = dose-dependent effect
PC-9 = experiment: In vivo antitumor activity against human PC-9 cells xenografted in NOD-SCID mouse assessed as tumor growth inhibition at 20 mg/kg, ip qd administered once every 2 days for 28 days relative to control; type: functional; details: PC-9, 672 h, time 28 day, read-out: TGI
[20] = biological target: T1, RAC-gamma serine/threonine-protein kinase; experiment: Induction of AKT3 degradation in human PC-9 cells assessed as reduction in AKT3 protein level incubated for 24 hrs by Western blot analysis; type: cell-based; details: dose 1.6-1000 nM, DDE = dose-dependent effect
NCI-H1975 [21] = experiment: In vivo antitumor activity against human osimertinib resistant NCI-H1975 cells xenografted in NOD-SCID mouse assessed as tumor growth inhibition at 40 mg/kg, ip qd administered every 3 days for 5 weeks relative to control; type: functional, organism-based
[22] = biological target: T1, RAC-gamma serine/threonine-protein kinase; experiment: Induction of AKT3 degradation in human osimertinib resistant NCI-H1975 cells assessed as increase in AKT3 ubiquitination at 100 nM incubated for 24 hrs in the presence of proteosome inhibitor MG132 by immunoprecipitation analysis; type: cell-based
[23] = Toxicity in NOD-SCID mouse xenografted with human osimertinib resistant NCI-H1975 cells assessed as change in body weight at 10 to 40 mg/kg, […] administered every 3 days for 5 weeks; type: organism-based; details: in vivo, 840 h, dose 10-40 mg/kg
[24] = biological target: T1, RAC-gamma serine/threonine-protein kinase; experiment: Binding affinity to AKT3 in human NCI-H1975 cells assessed as increase in thermal stability at 2 uM by thermal shift assay; type: cell-based
[25] = biological target: Epidermal growth factor receptor (Homo sapiens, UniProt P00533); experiment: Inhibition of EGFR in human NCI-H1975 cells; type: cell-based
Epidermal growth factor receptor (Homo sapiens, UniProt P00533), sequence (P00533 whole entry): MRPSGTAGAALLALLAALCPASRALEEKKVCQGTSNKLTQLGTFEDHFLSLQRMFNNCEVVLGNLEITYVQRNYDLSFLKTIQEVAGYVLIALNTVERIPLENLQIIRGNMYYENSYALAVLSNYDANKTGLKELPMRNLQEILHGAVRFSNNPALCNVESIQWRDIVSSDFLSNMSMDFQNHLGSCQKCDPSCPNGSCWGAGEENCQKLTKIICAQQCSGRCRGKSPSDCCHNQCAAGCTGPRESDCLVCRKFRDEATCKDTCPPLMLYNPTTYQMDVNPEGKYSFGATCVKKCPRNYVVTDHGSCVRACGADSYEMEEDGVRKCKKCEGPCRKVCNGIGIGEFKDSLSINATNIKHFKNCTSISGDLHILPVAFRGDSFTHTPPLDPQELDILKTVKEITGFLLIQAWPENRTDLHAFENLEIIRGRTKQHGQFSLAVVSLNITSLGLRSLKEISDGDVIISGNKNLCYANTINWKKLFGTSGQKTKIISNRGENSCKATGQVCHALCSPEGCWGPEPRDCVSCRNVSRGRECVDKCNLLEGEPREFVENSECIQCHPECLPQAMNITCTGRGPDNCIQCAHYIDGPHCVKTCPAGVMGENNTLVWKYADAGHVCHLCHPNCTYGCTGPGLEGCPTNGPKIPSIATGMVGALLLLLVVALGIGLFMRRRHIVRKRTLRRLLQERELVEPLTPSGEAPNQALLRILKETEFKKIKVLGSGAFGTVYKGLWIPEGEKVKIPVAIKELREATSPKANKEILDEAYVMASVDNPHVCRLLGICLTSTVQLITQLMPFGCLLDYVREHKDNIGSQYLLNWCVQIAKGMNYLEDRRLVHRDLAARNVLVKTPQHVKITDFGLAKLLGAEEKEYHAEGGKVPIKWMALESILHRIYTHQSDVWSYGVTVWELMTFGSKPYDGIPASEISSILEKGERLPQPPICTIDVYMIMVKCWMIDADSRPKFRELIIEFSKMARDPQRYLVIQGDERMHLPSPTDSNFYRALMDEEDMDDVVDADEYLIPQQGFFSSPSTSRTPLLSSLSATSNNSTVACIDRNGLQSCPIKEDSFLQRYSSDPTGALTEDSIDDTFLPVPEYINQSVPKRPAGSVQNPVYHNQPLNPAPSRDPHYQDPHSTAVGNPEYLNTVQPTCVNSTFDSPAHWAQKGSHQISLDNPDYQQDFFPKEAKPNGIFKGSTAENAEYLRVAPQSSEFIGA

[26] = biological target: T1, RAC-gamma serine/threonine-protein kinase; experiment: Induction of AKT3 degradation in human osimertinib resistant NCI-H1975 cells assessed as reduction in AKT3 protein level incubated for 24 hrs by Western blot analysis; type: cell-based; details: dose 1.6-1000 nM, DDE = dose-dependent effect
[27] = biological target: T1, RAC-gamma serine/threonine-protein kinase; experiment: Induction of AKT3 degradation in human osimertinib resistant NCI-H1975 cells assessed as increase in AKT3 degradation at 100 nM incubated for 24 hrs in presence of cycloheximide; type: cell-based
[28] = biological target: T1, RAC-gamma serine/threonine-protein kinase; experiment: Induction of AKT3 degradation in human osimertinib resistant NCI-H1975 cells by gel fluorescence and Coomassie bright blue staining based analysis; type: cell-based

Compound: C=CC(=O)Nc1cccc(-n2c(=O)cc(C)c3cnc(Nc4ccc(N5CCN(CCCCCCCCCCCCNC(=O)CC67CC8CC(CC(C8)C6)C7)CC5)cc4OC)nc32)c1
EC50 [1]: 52 nM | EC50 [2]: > 1000 nM | Emax [4]: 73% | EC50 [5]: 20.1 nM | EC50 [3]: > 1000 nM

Compound: C=CC(=O)Nc1ccc(-n2c(=O)cc(C)c3cnc(Nc4ccc(N5CCN(CCCCCCCCCCCCNC(=O)CC67CC8CC(CC(C8)C6)C7)CC5)cc4OC)nc32)cc1
EC50 [1]: > 1000 nM | EC50 [2]: > 1000 nM | EC50 [3]: > 1000 nM

Compound: C=CC(=O)Nc1cccc(-n2c(=O)cc(C)c3cnc(Nc4ccc(N5CCN(CCCCCCCCNC(=O)CC67CC8CC(CC(C8)C6)C7)CC5)cc4OC)nc32)c1
Emax [6]: 69% | Emax [7]: 55% | EC50 [1]: 52 nM | EC50 [2]: 82 nM | Emax [4]: 75% | EC50 [3]: 168 nM

Compound: C=CC(=O)Nc1cccc(-n2c(=O)cc(C)c3cnc(Nc4ccc(N5CCN(CCCCCCCCCCCCCCNC(=O)CC67CC8CC(CC(C8)C6)C7)CC5)cc4OC)nc32)c1
EC50 [1]: 120 nM | EC50 [2]: > 1000 nM | Emax [4]: 75% | EC50 [3]: > 1000 nM

Compound: COc1cc(N2CCN(CCCCCCCCCCCCNC(=O)CC34CC5CC(CC(C5)C3)C4)CC2)ccc1Nc1ncc2c(C)cc(=O)n(-c3cccc(NC(=O)C(C)(C)C)c3)c2n1
EC50 [1]: 57 nM | EC50 [2]: > 1000 nM | Emax [4]: 77% | EC50 [3]: > 1000 nM

Compound: CCC(=O)Nc1cccc(-n2c(=O)cc(C)c3cnc(Nc4ccc(N5CCN(CCCCCCCCCCCCNC(=O)CC67CC8CC(CC(C8)C6)C7)CC5)cc4OC)nc32)c1
EC50 [1]: 34 nM | EC50 [2]: > 1000 nM | Emax [4]: 74% | EC50 [3]: > 1000 nM

Compound: COc1cc(N2CCN(CCCCCCCCCCCCNC(=O)CC34CC5CC(CC(C5)C3)C4)CC2)ccc1Nc1ncc2c(C)cc(=O)n(-c3cccc(NC(=O)C4CC4)c3)c2n1
Activity (NCI-H1975 [9]): Active | Activity [10]: Dde | Activity (NCI-H1975 [11]): Active | Activity [12]: Dde | Activity [13]: Dde | Activity [14]: Active | Activity [15]: Active | Activity (NCI-H1975 [16]): Active | Activity [17]: Non-Toxic | EC50 [1]: 13 nM | Activity [18]: Dde | Activity [19]: Dde | EC50 [2]: > 1000 nM | inhibition in vivo at 20 mg/kg (PC-9): 75% | Activity [20]: Dde | Activity (NCI-H1975 [21]): Active | Activity [22]: Active | Emax [4]: 88% | Activity [23]: Non-Toxic | Activity [24]: Active | EC50 [25]: 579 nM | Activity [26]: Dde | EC50 [3]: > 1000 nM | Activity [27]: Active | Activity [28]: Active | IC50 (NCI-H1975 [8]): 7 nM

More lines, now with the values ahead:

EC50 [1]: 1000 nM | EC50 [2]: > 1000 nM | EC50 [3]: > 1000 nM
Compound: C=CC(=O)Nc1cccc(-n2c(=O)cc(C)c3cnc(Nc4ccc(N5CCN(CCCCCCNC(=O)CC67CC8CC(CC(C8)C6)C7)CC5)cc4OC)nc32)c1

IC50 (NCI-H1975 [8]): > 20000 nM
Compound: CC(C)NC[C@@H](C(=O)N1CCN(c2ncnc3c2[C@H](C)C[C@H]3O)CC1)c1ccc(Cl)cc1 [IPATASERTIB]

Emax [7]: 55% | EC50 [1]: 564 nM | EC50 [2]: > 1000 nM | Emax [4]: 55% | EC50 [3]: 300 nM
Compound: C=CC(=O)Nc1cccc(-n2c(=O)cc(C)c3cnc(Nc4ccc(N5CCN(CCOCCOCCNC(=O)CC67CC8CC(CC(C8)C6)C7)CC5)cc4OC)nc32)c1
